From publication PMC9883482, “TPX2 enhances the transcription factor activation of PXR and enhances the resistance of hepatocellular carcinoma cells to antitumor drugs” (Cell Death & Disease, 2023)

Assays:
[1] = Blood concentration assay of sorafenib, mice bearing MHCC97-H tumours; type: in vivo; details: nude, mouse, plasma, 2 mg/kg, 2 mg/kg oral
Procedure: Table notes: After knockdown of TPX2 in MHCC97-H cells, the cells were inoculated with nude mice to form subcutaneous tumour tissue (the volume of tumour tissue was approximately 1 g) and then given 2 mg/kg via oral administration. After knockdown TPX2 in MHCC97-H cells, the cells were inoculated into nude mice to form subcutaneous tumour tissue and then in situ liver tumour tissue was established. 2mg/kg via oral administration was given to nude mice. Thereafter, blood levels of sorafenib were measured.

[2] = Blood concentration assay of sorafenib, mice bearing MHCC97-L tumours; type: in vivo; details: nude, mouse, plasma, 2 mg/kg, 2 mg/kg oral
Procedure: Table notes: After overexpression of TPX2 in MHCC97-L cells, the cells were inoculated with nude mice to form subcutaneous tumour tissue (the volume of tumour tissue was approximately 1 g) and then given 2 mg/kg via oral administration. After overexpression of TPX2 in MHCC97-L cells, the cells were inoculated into nude mice to form subcutaneous tumour tissue and then in situ liver tumour tissue was established. 2mg/kg via oral administration was given to nude mice. Thereafter, blood levels of sorafenib were measured.

advanced HCC patients = assay: Prognosis of advanced HCC patients who received sorafenib, by TPX2 mRNA expression; type: in vivo, human; details: advanced HCC patients on sorafenib
Procedure: The human-related experimental materials involved in this study consisted of mainly cDNA samples extracted from patient-derived HCC clinical specimens or the HCC cell lines. The cDNA samples were stored in a –80 °C refrigerator and stored in aliquots. […] Baseline information was detailed in our previous publications. The cell lines use in this study included various HCC cell lines (HepG2 [a HCC cell line], MHCC97-H [a highly aggressive HCC cell line], and MHCC97-L [a lowly aggressive HCC cell line]) and a PXR positive colorectal cancer line LS180. These cells were purchased from the National Infrastructure of Cell Resources of the Chinese Academy of Medical Sciences/China Union Medical College and descripted in our previous work.
All statistical analyses in the presence work were performed using the GraphPad 8.0 (GraphPad Software Corporation, Armonk, NY, USA). […] For the co-relationship analysis, the data were analyzed by linear regression to determine the overall trend of a group of data points. […] If the slope was positive, the horizontal coordinate was positively related to the vertical coordinate, and if the slope was negative, the horizontal coordinate was negatively related to the vertical coordinate. […] An ANOVA was used to examine whether any difference between groups could be detected. […]

MHCC97-L cells = assay: MTT cell survival examination; type: cell-based; details: Homo sapiens, MHCC97L, 48 h, median (95% CI)
Procedure: (§1) In the process of dissolving these pure drug powders, stirring, vortexing, and ultrasonic vibration were used to assist dissolution [17, 18]. After a drug was fully dissolved, Dulbecco’s modified Eagle’s medium (DMEM) without fetal bovine serum (FBS) was used to dilute the drug dissolved in DMSO. For doxorubicin, we used DMEM without FBS to dissolve the drug. When performing cell viability experiments (tetrazolium [MTT] assays), these drugs were diluted.
(§2) The antitumor activity of antitumor drugs injuring HCC cells was examined by using MTT assay. After culturing the HCC cells, transfection experiments were performed, and the cells were then seeded in 96-well cell culture plates (about 8000 cells per well). […] After the cells were treated with the drug for about 48 h, a dose of […] tetrazolium (MTT) reagent was added, and cells with the MTT reagent were incubated for 5 to 6 h. After incubation with the MTT was complete, all liquid in the 96-well cell culture plate was discarded, and about 100 μl of DMSO was added to each well to dissolve the cell samples. During the process of lysing the cell samples, the cell culture plate was shaken for 15 minutes to completely lyse the cells. After the lysis step was complete, the cell culture plate was centrifuged at 12,000 rpm at 4 °C, and the supernatant was collected for evaluation.
(§3) All statistical analyses in the presence work were performed using the GraphPad 8.0 (GraphPad Software Corporation, Armonk, NY, USA). […] For the survival analysis data, the survival curves were analyzed by the log-rank (Mantel–Cox) test to detect the P-value of the survival curve, the median survival time, and the 95% confidence interval (CI). For the co-relationship analysis, the data were analyzed by linear regression to determine the overall trend of a group of data points. […] If the slope was positive, the horizontal coordinate was positively related to the vertical coordinate, and if the slope was negative, the horizontal coordinate was negatively related to the vertical coordinate. For the multi-grouped data, the ordinary one-way analysis of variance (ANOVA) and multiple comparison methods were used. An ANOVA was used to examine whether any difference between groups could be detected. The multiple comparisons (t-test) was used to detect differences between pairs of data.

HepG2 cells = assay: MTT cell survival examination; type: cell-based; details: Homo sapiens, HepG2, 48 h
Procedure: as §1, §2, §3

MHCC97-H cells = assay: MTT cell survival examination; type: cell-based; details: Homo sapiens, MHCC97H, 48 h
Procedure: as §1, §2, §3

[3] = oral, Subcutaneous MHCC97-H Control tumour
[4] = oral, Subcutaneous MHCC97-H siTPX2 tumour
[5] = po, intrahepatic MHCC97-H Control tumour
[6] = po, intrahepatic MHCC97-H siTPX2 tumour
[7] = oral, Subcutaneous MHCC97-L Control tumour
[8] = oral, Subcutaneous MHCC97-L TPX2 tumour
[9] = po, intrahepatic MHCC97-L Control tumour
[10] = po, intrahepatic MHCC97-L TPX2 tumour

Compound `CNC(=O)c1cc(Oc2ccc(NC(=O)Nc3ccc(Cl)c(C(F)(F)F)c3)cc2)ccn1` [sorafenib] has a concentration at 2 h [1, 3] of 23.3 ± 16.6 ng/mL, a concentration at 2 h [1, 4] of 33.2 ± 19.4 ng/mL and a concentration at 8 h [1, 3] of 152 ± 25.4 ng/mL. It also gave a concentration at 8 h [1, 4] of 170 ± 32.3 ng/mL, a concentration at 20 h [1, 3] of 123 ± 23.6 ng/mL and a concentration at 20 h [1, 4] of 142 ± 21.4 ng/mL. For the same compound, the concentration at 40 h [1, 3] was 63 ± 14.5 ng/mL, the concentration at 40 h [1, 4] was 77.5 ± 23.5 ng/mL and the concentration at 2 h [1, 5] was 22.5 ± 11.8 ng/mL. It also gave a concentration at 2 h [1, 6] of 24.3 ± 14.2 ng/mL, a concentration at 8 h [1, 5] of 146 ± 28.7 ng/mL and a concentration at 8 h [1, 6] of 152 ± 22.1 ng/mL. The concentration at 20 h [1, 5] was 120 ± 32 ng/mL, the concentration at 20 h [1, 6] was 127 ± 31.2 ng/mL and the concentration at 40 h [1, 5] was 46.8 ± 31.9 ng/mL. For the same compound, the concentration at 40 h [1, 6] was 57.8 ± 27.6 ng/mL, the concentration at 2 h [2, 7] was 17.4 ± 9.73 ng/mL and the concentration at 2 h [2, 8] was 13.9 ± 6.77 ng/mL. For the same compound, the concentration at 8 h [2, 7] was 142 ± 26.8 ng/mL, the concentration at 8 h [2, 8] was 122 ± 27.9 ng/mL and the concentration at 20 h [2, 7] was 112 ± 30.5 ng/mL. It also gave a concentration at 20 h [2, 8] of 99.8 ± 19.6 ng/mL, a concentration at 40 h [2, 7] of 44.4 ± 16.9 ng/mL and a concentration at 40 h [2, 8] of 29.6 ± 17.2 ng/mL. It also gave a concentration at 2 h [2, 9] of 17.9 ± 8.39 ng/mL, a concentration at 2 h [2, 10] of 18.1 ± 9.63 ng/mL and a concentration at 8 h [2, 9] of 138 ± 27.9 ng/mL. For the same compound, the concentration at 8 h [2, 10] was 144 ± 30 ng/mL, the concentration at 20 h [2, 9] was 117 ± 29.9 ng/mL and the concentration at 20 h [2, 10] was 115 ± 29.9 ng/mL. It also gave a concentration at 40 h [2, 9] of 51.6 ± 17.2 ng/mL, a concentration at 40 h [2, 10] of 41.4 ± 19.1 ng/mL and a TTP median value (advanced HCC patients; TPX2 mRNA High (n = 26)) of 9.0 months. The OS median value (advanced HCC patients; TPX2 mRNA Low (n = 26)) was 16.0 months, the IC50 (MHCC97-L cells; Control) was 1860 nM and the IC50 (MHCC97-L cells; TPX2 overexpression) was 4840 nM. It also gave an IC50 (HepG2 cells; HepG2, Control, median (95% CI)) of 1270 nM, an IC50 (HepG2 cells; HepG2, TPX2 overexpression, median (95% CI)) of 4680 nM and an IC50 (HepG2 cells; HepG2, siTPX2, median (95% CI)) of 500 nM. For the same compound, the IC50 (MHCC97-H cells; Control, median (95% CI)) was 1160 nM and the IC50 (MHCC97-H cells; siTPX2, median (95% CI)) was 470 nM.
